16 compounds from ChEMBL document CHEMBL5214925, “Dual-target inhibitors of indoleamine 2, 3 dioxygenase 1 (Ido1): A promising direction in cancer immunotherapy” (Eur J Med Chem, 2022) can be followed below.

The target in series [1] is T1, Indoleamine 2,3-dioxygenase 1 (Homo sapiens, UniProt P14902). Nature of the series: Inhibition of IDO1 in human BT-549 cells. Particulars: pooled result: one value given for 2 cell lines, strains, targets or settings. It is filed as cell-based.
Target sequence in this assay (P14902 whole entry): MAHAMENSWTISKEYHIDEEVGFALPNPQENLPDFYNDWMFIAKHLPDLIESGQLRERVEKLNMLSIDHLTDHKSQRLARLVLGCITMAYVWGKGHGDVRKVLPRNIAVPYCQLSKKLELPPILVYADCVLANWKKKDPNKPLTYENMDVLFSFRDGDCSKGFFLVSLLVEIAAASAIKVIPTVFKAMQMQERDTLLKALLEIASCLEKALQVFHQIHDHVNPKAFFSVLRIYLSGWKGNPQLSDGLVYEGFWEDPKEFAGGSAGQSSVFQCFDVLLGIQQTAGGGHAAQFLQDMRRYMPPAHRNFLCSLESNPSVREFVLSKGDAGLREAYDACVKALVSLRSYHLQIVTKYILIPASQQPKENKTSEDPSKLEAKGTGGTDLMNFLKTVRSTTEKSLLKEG
Series [2] is described as follows: Clearance in Sprague-Dawley rat plasma. It is filed as ADME, cell-free.
In series [3] the test system is CT26. Nature of the series: Antitumor activity against mouse CT26 cells allografted in mouse assessed as tumor growth inhibition at 50 mg/kg. It is filed as functional. Particulars: read-out: TGI.
The nature of series [4]: Volume of distribution in Sprague-Dawley rat plasma. It is filed as ADME, cell-free.
Series [5] has as its target Tryptophan 2,3-dioxygenase (Homo sapiens, UniProt P48775). Nature of the series: Inhibition of recombinant C-terminal His tagged TDO (unknown origin) expressed in Escherichia coli.
Series [6] concerns the target T1, Indoleamine 2,3-dioxygenase 1. Nature of the series: Inhibition of recombinant N-terminal His tagged IDO1 (unknown origin) expressed in Escherichia coli incubated for 1.5 hrs by FULOstar OMEGA plate reader method.
Target sequence in this assay (P14902 whole entry): as above
The nature of series [7]: Antiproliferative activity against melanoma cells (unknown origin) subcutaneously xenografted in mouse model assessed as inhibition of cell growth rate at 100 mg/kg relative to control. It is filed as functional. Particulars: sc.
Series [8] is described as follows: Antiproliferative activity against melanoma cells (unknown origin) subcutaneously xenografted in mouse model assessed as inhibition of cell growth rate at 50 mg/kg relative to control. It is filed as functional. Particulars: sc.
Series [9] is described as follows: Antitumor activity against mouse HEPA1-6 cells allografted in mouse model over expressing IDO1 assessed as tumor growth inhibition relative to control. It is filed as functional.
The nature of series [10]: Antitumor activity against mouse LL2 cells allografted in mouse model over expressing IDO1 assessed as tumor growth inhibition relative to control. It is filed as functional, Lewis lung carcinoma.
Series [11] can be described thus: Antitumor activity against mouse HEPA1-6 cells allografted in mouse model over expressing TDO assessed as tumor growth inhibition relative to control. It is filed as functional.
In series [12] the target is T1, Indoleamine 2,3-dioxygenase 1. The series is described as follows: Inhibition of IDO1 (unknown origin) using L-tryptophan as substrate at 10 uM incubated for 10 mins relative to control.
Target sequence in this assay (P14902 whole entry, looked up): as the sequence (P14902 whole entry) above
Series [13] has as its system CT26. The series is described as follows: Antiproliferative activity against mouse CT26 cells. It is filed as functional, cell-based.
Series [14] is described as follows: Antitumor activity against Lewis Lung carcinoma cells in mouse expressing IDO1 assessed as tumor growth inhibition relative to control. It is filed as functional.
A short description of series [15]: Antiproliferative activity against mouse Lewis lung carcinoma cell line. It is filed as functional, cell-based.
Series [16] has as its target T1, Indoleamine 2,3-dioxygenase 1. The series is described as follows: Inhibition of IDO1 (unknown origin).
Target sequence in this assay (P14902 whole entry): as above
For series [17], the system named is HCT-116. Nature of the series: Antiproliferative activity against human HCT-116 cells. It is filed as functional, cell-based.
The subject of series [18] is HCT-116. Nature of the series: Cytotoxicity against human HCT-116 incubated for 24 hrs by CCK-8 assay. It is filed as functional, cell-based. The settings on record: HCT-116, 24 h.
A short description of series [19]: Cytotoxicity against human colon epithelial cells incubated for 24 hrs by CCK-8 assay. It is filed as functional, cell-based. Particulars: Epithelial cell.
Series [20] has as its system A549. The series is described as follows: Cytotoxicity against human A549 cells by CCK-8 method. It is filed as functional, cell-based.
Series [21] relates to HeLa. The series is described as follows: Cytotoxicity against human HeLa cells. It is filed as functional. Particulars: read-out: LC50 (the source's name).
For series [22], the system named is CT26. The series is described as follows: Antitumor activity against mouse CT26 cells allografted in immunocompetent mouse assessed as tumor growth inhibition relative to control. It is filed as functional.
Series [23] deals with HCT-116. Nature of the series: Cytotoxicity against human HCT-116 cells by CCK-8 method. It is filed as functional, cell-based.
The test system of series [24] is HT-29. Nature of the series: Cytotoxicity against human HT-29 cells by CCK-8 method. It is filed as functional, cell-based.
Series [25] deals with T1, Indoleamine 2,3-dioxygenase 1. Nature of the series: Inhibition of human recombinant IDO1 in human HeLa cells incubated for 48 hrs. It is filed as cell-based.
Target sequence in this assay (P14902 whole entry): as above
Series [26] has as its system CT26. The series is described as follows: Cytotoxicity against […] cells by CCK-8 method. It is filed as functional, cell-based. Particulars: Mus musculus.
Series [27] relates to CT26. The series is described as follows: Antitumor activity against mouse CT26 cells allografted in nude mouse assessed as reduction in tumor volume relative to control. It is filed as functional. More on the design: scale not given: the % may be the effect or the level left.
In series [28] the target is Histone deacetylase 1 (Homo sapiens, UniProt Q13547). Nature of the series: Inhibition of HDAC1 (unknown origin) using […] as substrate preincubated for 15 mins followed by substrate addition measured after 60 mins.
Histone deacetylase 1, sequence (Q13547 whole entry): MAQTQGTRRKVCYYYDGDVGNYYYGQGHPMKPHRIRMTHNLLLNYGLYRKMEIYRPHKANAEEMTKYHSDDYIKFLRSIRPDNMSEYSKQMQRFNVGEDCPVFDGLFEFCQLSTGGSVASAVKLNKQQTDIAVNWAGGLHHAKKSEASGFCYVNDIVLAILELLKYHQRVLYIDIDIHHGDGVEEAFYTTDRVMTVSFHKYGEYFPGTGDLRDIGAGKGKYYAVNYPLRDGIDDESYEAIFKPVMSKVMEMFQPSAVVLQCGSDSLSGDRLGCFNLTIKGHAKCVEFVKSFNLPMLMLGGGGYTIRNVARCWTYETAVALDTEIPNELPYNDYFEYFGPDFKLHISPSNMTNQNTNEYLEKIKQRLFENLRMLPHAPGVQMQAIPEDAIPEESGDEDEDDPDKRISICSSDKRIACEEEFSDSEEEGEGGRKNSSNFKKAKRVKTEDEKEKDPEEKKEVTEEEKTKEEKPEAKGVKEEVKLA
The target in series [29] is T1, Indoleamine 2,3-dioxygenase 1. Nature of the series: Inhibition of IDO1 (unknown origin) using L-tryptophan as substrate incubated for 10 mins.
Target sequence in this assay (P14902 whole entry): as the sequence (P14902 whole entry) above
The target is the same in series [30]. Nature of the series: Inhibition of IDO1 in human A-172 cells. It is filed as cell-based.
Target sequence in this assay (P14902 whole entry): as above
A short description of series [31]: Antitumor activity against Lewis lung carcinoma cell in C57BL/6 mouse assessed as tumor growth inhibition at 60 mg/kg relative to control. Particulars: C57BL/6, Lewis lung carcinoma, read-out: TGI. It is filed as functional.
Series [32] in a line: Inhibition of TrxR in human HCT-116 cell lysate. It is filed as subcellular.
The target in series [33] is T1, Indoleamine 2,3-dioxygenase 1. The series is described as follows: Inhibition of human N-terminal His tagged recombinant IDO1 (5 to 403 residues) expressed in Escherichia coli BL21 (DE3).
Series [34] shares this target. The series is described as follows: Inhibition of IDO1 in human HeLa cells. It is filed as cell-based.
A short description of series [35]: Inhibition of rat liver TrxR incubated for 1 hr. It is filed as tissue-based.

Tryptophan 2,3-dioxygenase, sequence (P48775 whole entry): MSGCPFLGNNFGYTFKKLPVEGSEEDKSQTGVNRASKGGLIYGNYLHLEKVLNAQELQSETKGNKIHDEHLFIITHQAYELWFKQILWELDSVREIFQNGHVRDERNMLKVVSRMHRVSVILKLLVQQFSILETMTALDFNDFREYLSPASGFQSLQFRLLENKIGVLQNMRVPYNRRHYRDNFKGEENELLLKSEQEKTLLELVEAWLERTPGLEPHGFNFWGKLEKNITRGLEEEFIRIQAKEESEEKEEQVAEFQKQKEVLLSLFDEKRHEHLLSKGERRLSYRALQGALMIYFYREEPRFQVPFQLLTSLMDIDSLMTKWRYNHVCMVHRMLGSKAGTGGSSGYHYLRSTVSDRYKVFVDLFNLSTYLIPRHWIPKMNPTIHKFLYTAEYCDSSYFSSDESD

In series [1], `Cc1ccc(C(=O)CC(=O)c2ccccc2OC(C)C)c(O)c1` gave an IC50 of 10.8 µM.
Turning to `OCCOCc1cn(CCNc2nonc2/C(=N/O)Nc2ccc(F)c(Br)c2)nn1`, the clearance in [2] amounted to 27.5 mL/min/kg. For the same compound, the inhibition in vivo at 50 mg/kg in [3] was 69.7%. The Vd in series [4] was determined as 0.88 L/kg.
In the case of `O[C@@H](c1cn2cncc2cc1Cl)C1CCCCC1`, the results for the concentration for half-maximal inhibition (IC50) in series [5] and in [6] were 0.029 µM and 0.0096 µM, respectively.
Consider `COc1cc(Nc2cc(NC(C)=O)cc3[nH]c(C(=O)O)cc23)cc(OC)c1OC`, for which the inhibition in vivo at 100 mg/kg in series [7] stood at 44.7%. Besides, the inhibition in vivo at 50 mg/kg in [8] was found to be 43.2%.
On to `O=C1c2cc(F)ccc2C(=O)c2c1nnn2-c1ccc(F)c(Cl)c1`, for which the figures for the TGI in series [9], in series [10] and in [11] were 80%, 62.5% and 80%, respectively.
In turn, `CC(C)=CCCc1c(C)ccc2c1C(=O)C(=O)C(C(C)C)=C2` displayed an inhibition in series [12] of 85%.
Consider `Cn1cc(-c2ccc(NC(N)=O)cc2)c2ccc(F)cc21`, for which the IC50 in series [5] is 0.078 µM; in [6], 0.049 µM.
Turning to `NC(CC(=O)O)Cc1c[nH]c2cc(N(CCCl)CCCl)ccc12` (stereo unspecified), the 50% inhibitory concentration (IC50) is 63.9 µM in [13], 63.9 µM in series [15], 227 µM in series [16] and 63.9 µM in [17]. Also, in series [14], the TGI was 73.5%.
Turning to `NC(CC(=O)O)Cc1c[nH]c2ccc(N(CCCl)CCCl)cc12` (stereo unspecified), the IC50 in series [13] amounted to 23.7 µM; in [15], 23.7 µM; in [16] it was 14 µM; in [17], 23.7 µM. In [14], the tumour growth inhibition (TGI) turned out to be 63.8%.
With `COc1cc(/C=C/C(=O)N2CCC=CC2=O)cc(OC)c1OC` [PIPLARTINE], the IC50 in series [18] was found to be 6.38 µM; in [19], 46.9 µM.
With `O=C(NCCNc1nonc1/C(=N/O)Nc1ccc(F)c(Br)c1)c1cccc(N(CCCl)CCCl)c1`, the IC50 in [20] is 17 µM; in series [23], 25 µM; in series [24], 19 µM; in [26], 25 µM. Besides, in series [21], the CC50 amounted to 39 µM. Further, in series [22], the TGI was 58.2%. The EC50 in [25] was determined as 0.27 µM. Also, the Activity in series [27] is on record as 28.6%.
With `Cc1ccc2c(c1CCC(=O)NCCCCCC(=O)CNc1ccccc1N)C(=O)C(=O)C(C(C)C)=C2`, the IC50 was determined as 0.46 µM in [28] and 0.73 µM in [29].
As for `CC1=C(CC(=O)c2sccc2Br)C(=O)c2ccccc2C1=O`, in [30], half-maximal inhibition (IC50) was put at 37.7 µM.
In series [1], `COc1ccccc1C(=O)CC(=O)c1ccc(C)cc1O` returned an IC50 of 20.6 µM.
In the case of `NS(=O)(=O)NCCNc1nonc1/C(=N/O)Nc1ccc(F)c(Br)c1` [EPACADOSTAT], the TGI in series [22] is given as 47.5%. For the same compound, the inhibition in vivo at 60 mg/kg in series [31] stood at 68%.
On to `O=C1C=CCCN1C(=O)/C=C/c1ccccc1-c1c[nH]cn1`, for which the IC50 amounted to 0.55 µM in series [18]; 4.22 µM in [32]; 0.084 µM in series [33]; 42 µM in [19]; 7.89 µM in series [35]. This compound also showed a concentration for a half-maximal effect (EC50) in [34] of 1.41 µM.
